Results reported in patent publication US20060154952A1, “Pharmaceutical compositions comprising a combination of rapamycin or its derivative and pimecrolimus for the treatment of inflammation-and ummunologically-mediated diseases” (priority 2003, published 2006).

Tests used:
Type in all cases: in vivo
SCID-IBD mice [1] = experiment: SCID-IBD mouse model: loss of body weight; details: for effect on the loss of body weight: either compound alone at the dosages used (ASM 60, 30, 10 mg/kg/d; Compound A 0.1, 0.05 mg/kg/d), daily oral gavage
Source text: (§1) Female BALB/cJ and C.B.17 scid/scid mice (Fox Chase SCID®, Bomholtgaard, Denmark) are maintained in ventilated cage racks (Micro-vent type 84-II, Allentown Caging Equipment Co., Allentown, N.J., USA) under specific pathogen free conditions. The experimental procedures performed on the mice are authorized under the license number MA 1048/00 (Magistratabteilung No. 58, Amt der Wiener Landesregierung).
Briefly, CD4^+CD45RB^HI T lymphocytes are isolated from BALB/c mouse spleens by two-colour FACS-sorting through a live/dead gate and injected (2×10^5 cells/mouse, i.p.) into 6-9 week old female SCID mice. Negative control mice receive PBS i.p. and one such mouse is in each cage as a sentinel to monitor possible infections in this immunodeficient colony (PBS-mice).
SCID mice are first reconstituted with the CD4^+CD45RB^HI T cells and then treated with test compounds or vehicle as controls. As test compounds Compound A (RAD) and pimecrolimus (ASM) are used. 3 separate studies using different dosaging are carried out. In each study both compounds are administered alone and combined. […]
The body weight of each mouse is monitored throughout and at the end of the study mice are weighed.
All data presented as mean values are qualified by an s.e.m. value. The body weight data are analysed either by repeated measures analysis or by first finding the mean AUC and then applying an ANOVA multiple comparison test with Tukey post hoc correction. […] All other data are first analysed for normal distribution and then the ANOVA test for multiple comparison is applied. […]
The first visible symptom resulting from the transfer of disease causing CD4^+CD45RB^HI T cells to SCID mice is a severe loss of body weight, usually significant 21 days after transfer. […] In the 3 individual studies described herein, the mean % difference in body weight between the non-transferred and the vehicle-treated mice is calculated to be 16.3±1.8%.

SCID-IBD mice [2] = experiment: SCID-IBD mouse model: lymphocyte numbers (CD3+CD4+) by FACS in blood, spleen and MLN; details: for lymphocyte numbers in single treatment groups: study 2: ASM 30 mg/kg/d or Compound A 0.1 mg/kg/d administered alone
Procedure: (§2) SCID mice are first reconstituted with the CD4^+CD45RB^HI T cells and then treated with test compounds or vehicle as controls. As test compounds Compound A (RAD) and pimecrolimus (ASM) are used. 3 separate studies using different dosaging are carried out. In each study both compounds are administered alone and combined. All 3 studies follow the same basic protocol of 4 groups of mice with one group receiving, by daily oral gavage, both vehicles (placebo), one group Compound A alone, one group ASM alone, and one group a combination of Compound A and pimecrolimus, from day 1 to day 29 after cell transfer.
Blood is also taken into 10 mM EDTA for preparation for FACS analysis.
The spleen and MLN are taken from each mouse, weighed and processed for FACS analysis of single cell suspensions.
(§3) Specimens are embedded in paraffin, sections (3 μm thick) are cut and stained with H & E. Four colour FACS analysis is performed on cell suspensions prepared from the blood, spleen and mesenteric lymph nodes (MLNS) of each mouse.
Antibodies are obtained from Pharmingen. Cells which are double positive for CD3 and CD4 are counted as lymphocytes. Cells positive for Ly-6G (myeloid differentiation antigen) and negative for CD3 or CD4 are neutrophils (also their cellular characteristics (forward and side scatter) distinguishes them from the other cells).
The number of cells per sample is calculated from the total cell number in each cell suspension and the % of positively identified (samples analysed on a FACS Calibur® using CellQuest Pro® software) cells per sample.
(§4) The mean of these values for a group of mice can thus be calculated. To process some of the data further, the determined values are adjusted by subtracting the background value found in non-transferred mice and calculating the % reduction, or indeed increase, in mean cell number, relative to the placebo treated group.

SCID-IBD mice [3] = experiment: SCID-IBD mouse model: colon inflammation, histological severity score; details: for effect on colon inflammation (severity scores): low dose study: ASM 10 mg/kg/d, Compound A 0.05 mg/kg/d, alone or combined
Procedure: as §2
A photographic picture is taken of the opened abdominal cavity and then a 1 cm long piece of the colon, just above the rectum, is fixed in formalin for histology.
as §3
All data presented as mean values are qualified by an s.e.m. value. The body weight data are analysed either by repeated measures analysis or by first finding the mean AUC and then applying an ANOVA multiple comparison test with Tukey post hoc correction. Histology scores are represented as the mean severity score and compared with a Wilcoxon-Mann-Whitney test with exact p-values (StatXact-5 software) and Bonferroni post hoc correction factor. All other data are first analysed for normal distribution and then the ANOVA test for multiple comparison is applied. Statistical significance is taken as p<0.05.
The inflammation in the colon of SCID-IBD mice shares many features observed in lesional tissue of a Crohn's diseased colon. In order to examine the intestinal mucosal damage in SCID-IBD mice a histological examination of the colon sections was performed according to defined morphological parameters. The severe colitis associated with this model of IBD is characterized with a massive cellular infiltrate which in places involves nearly all of the submucosa. The infiltrate is mixed and comprised of lymphocytes, macrophages, neutrophils and some eosinophils. Also evident is the loss of crypt architecture, extensive elongation and epithelial hyperplasia. A severely inflamed colon section will also have crypt abscesses. Numeric scores were given as per the following scheme: a score of 0 to 3 is given for the leucocyte infiltrate where 1 is mild, 2 is moderate and 3 is a severe infiltrate including the submucosal layer. A score of 0 to 2 is given for Goblet cell depletion where 2 is given for a complete lack of the alcian blue staining, 0 is given for a normal amount of staining and 1 is intermediate. […] The maximum possible score is 8 and (PBS)-mice are scored 0. […]

SCID-IBD mice [4] = experiment: SCID-IBD mouse model: overall disease inhibition / effective dose; details: single treatment groups: ASM 60, 30, 10 mg/kg/d; Compound A 0.1, 0.05 mg/kg/d
Source text: as §1
Briefly, CD4^+CD45RB^HI T lymphocytes are isolated from BALB/c mouse spleens by two-colour FACS-sorting through a live/dead gate and injected (2×10^5 cells/mouse, i.p.) into 6-9 week old female SCID mice. […]
(§5) The increasing T cell population with time also results in an increase in size of lymphoid organs which are otherwise comparatively small in the non-transferred SCID mouse. By day 28 post T cell transfer the inflammation is relatively consistent within a group of mice and this has been adopted as the shortest time where accurate effects of treatment with test compounds can be measured. The effects of a range of doses of Compound A and ASM as single preventative compounds are, in brief, comparative effective dose ranges are found to be from 30 to 100 mg/kg/d administration of ASM and 0.1 to 1 mg/kg/d of Compound A. In the present tests sub-maximal doses of each compounds are used and the effect of the single and combined treatment in the same study is determined.

SCID-IBD mice [5] = experiment: SCID-IBD mouse model: serum haptoglobin levels; details: for reduction of serum haptoglobin levels: ASM at 60 and 30 mg/kg/d, Compound A at 0.1 or 0.05 mg/kg/d, alone; for % reduction of serum haptoglobin: low dose study: ASM 10 mg/kg/d, Compound A 0.05 mg/kg/d, alone or combined
Procedure: as §2
The mice are anaesthetized at the end of the study and blood withdrawn via cardiac puncture for separation into serum which is frozen and stored at −80°.
as §4, §5

| Structure (SMILES) | inhibition of weight loss (SCID-IBD mice [1]; ASM alone 60 mg/kg/d, daily oral gavage day 1 to 29) | effect on the loss of body weight (SCID-IBD mice [1]) | reduction in lymphocyte numbers in MLN (SCID-IBD mice [2]; study 1: ASM 60 mg/kg/d, alone or combined with Compound A 0.1 mg/kg/d) [%] | lymphocyte numbers in single treatment groups (SCID-IBD mice [2]) | effect on colon inflammation (histology severity score) (SCID-IBD mice [3]; ASM981 60 mg/kg/d alone) | effect on colon inflammation (severity scores) (SCID-IBD mice [3]) | disease inhibition, single treatment (SCID-IBD mice [4]) | reduction of serum haptoglobin levels (SCID-IBD mice [5]) | % reduction of serum haptoglobin (SCID-IBD mice [5]) [%] | effects on lymphocyte numbers (SCID-IBD mice [2]; Compound A 0.1 mg/kg/d alone) | activity on colon inflammation (SCID-IBD mice [3]; Compound A alone at doses below 0.5 mg/kg/d) |
| --- | --- | --- | --- | --- | --- | --- | --- | --- | --- | --- | --- |
| CC[C@@H]1/C=C(\C)C[C@H](C)C[C@H](OC)[C@H]2O[C@@](O)(C(=O)C(=O)N3CCCC[C@H]3C(=O)O[C@H](/C(C)=C/[C@@H]3CC[C@H](Cl)[C@H](OC)C3)[C@H](C)[C@@H](O)CC1=O)[C@H](C)C[C@@H]2OC [ASM, {[1E-(1R,3R,4S)]1R,9S,12S,13R,14S,17R,18E,21S,23S,24R,25S,27R}-12-[2-(4-chloro-3-methoxycyclohexyl)-1-methylvinyl]-17-ethyl-1,14-dihydroxy-23,25-dimethoxy-13,19,21,27-tetramethyl-1,28,dioxa-4-azatricyclo [22.3.1.0(4,9)]octacos-18-ene-2,3,10,16-tetraone] | significant, but low inhibition of weight loss | only minor effects | 73.5 | not reduced | significant effect | very little effect | significant effects | potently reduces | 32.7 | – | – |
| CO[C@H]1C[C@@H]2CC[C@@H](C)[C@@](O)(O2)C(=O)C(=O)N2CCCC[C@H]2C(=O)O[C@H]([C@H](C)C[C@@H]2CC[C@@H](OCCO)[C@H](OC)C2)CC(=O)[C@H](C)/C=C(\C)[C@@H](O)[C@@H](OC)C(=O)[C@H](C)C[C@H](C)/C=C/C=C/C=C/1C [Compound A, 40-O-(2-hydroxyethyl)-rapamycin] | – | only minor effects | – | not reduced | – | very little effect | – | very weakly active | 27.4 | only weal, if any effects | not significantly active |
